Where two headings read alike, the source gives them in different places. Ends that are not written are not given here.
What was measured:
[1] = tested on: methicillin-resistant Staphylococcus aureus (MRSA); assay type: cell-based; conditions: MRSA growth (FIG. 11)
Description: LGG CM (19.7×10^12 CFU/ML) as positive control.

Salmonella typhi = assay: Colony-count relative inhibition of Salmonella growth by peptide NPSRQERR; assay type: cell-based; conditions: S. typhi 38×10^6 CFU/mL; 3 hours, then overnight colony count
[2] = tested on: Tetracycline-resistant E. coli TOPO10; conditions: Tetracycline-resistant E. coli 8.7×10^13 CFU/ML, 3 hours, A600
Description: TOPO10 (8.76×10^13) 10 ml+100 ml peptide (in LB)+900 ml LB, mixed, incubated at 37° C., 225 rpm for 3 hours, at the end, measure A600 and calculation the inhibition rate. […] LGG CM (9.7×10^12 CFU/ML) as positive control.
(§1) SM 10_pir (2.6×10^13CFU) or TOPO10 (8.76×10^13) 10 μl, peptides solution 100 μl and (peptides dissolved in LB broth) were added into 900 ul LB broth, mixed, incubated at 37° C., for 3 hours with shaking at 225 rpm, measure the A600 at the end. Relative inhibition activity was calculated according to the following formula (1−A600 of sample group/A600 of control group)×100%.

E. coli EAEC 042 = assay type: cell-based; conditions: EAEC 042, 3 h
Description: FIGS. 6A-6B show: EAEC 042 growth time-course (FIG. 6A). Ten microliters of E. coli (2.16×10^14 CFU/mL) were added in 1 mL LB broth and incubated in 37° C., shaking at 225 rpm, measuring A600 every 30 minutes. […] Ten microliters of EAEC 042 (7.7×10^12CFU/mL) were added to 1 mL LB broth mixed, and 100 mL of each peptide solution dissolved in MRS was added to the mixture. MRS alone (100 mL) and LGG CM (100 mL) (initial concentration 19.7×10^12CFU/mL) were used as negative and positive controls, respectively. The mixture was cultured for 3 hours and the A600 measured at the end of incubation. Also shown is the mean percentage inhibition ±SD. N=3 for all synthetic peptides tested. N=7 for LGG CM.
The assay was performed as described (12), with minor modifications. Briefly, 10 mL E. coli EAEC 042 (7.7×10^14CFU/mL) was added to 1.0 mL LB Broth, mixed, and 100 mL of each LGG-derived synthetic peptide solution dissolved in MRS (for peptide final concentration see FIG. 6B) was added to the mixture. MRS alone (100 mL) and LGG CM 100 mL (LGG concentration: 19.7×10^12 CFU/mL) were used as negative and positive controls, respectively. The mixture was cultured for 3 hours with shaking at 225 rpm, 37° C., measuring A600 at the end.

[3] = tested on: Kanamycine-resistant E. coli SM10_pir; conditions: Kanamycine-resistant E. coli 2.6×10^13 CFU/ML, 3 hours, A600
Description: SM10_pir (2.6×10^13) 10 ml+100 ml peptide (in LB)+900 ml LB, mixed, incubated at 37° C., 225 rpm for 3 hours, at the end, measure A600 and calculation the inhibition rate. […] LGG CM (9.7×10^12 CFU/ML) as positive control.
as §1

Staphylococcus aureus = assay: Colony-count relative inhibition of Staphylococcus growth by peptide NPSRQERR; assay type: cell-based

NPSRQEFF (peptide sequence SEQ ID NO 1 where residues 7 and 8 are both replaced with Phe for a zero net charge) [variant of NPSRQERR with net positive charge decreased from 2 to 0]
inhibition activity lost relative to NPSRQERR ([1]; net positive charge decreased from 2 to 0): 12%

NPSRQERR [NPSRQERR]
peptide concentration at which 100% inhibition was reached (Salmonella typhi): 8 mmol/L | inhibition rate ([2]; peptide 2.76 mM): 69.08% | E. coli growth inhibition (E. coli EAEC 042): 81.4% | inhibition rate ([3]; peptide 2.76 mM): 43.75% | peptide concentration at which 100% inhibition was reached (Staphylococcus aureus; S. aureus 44×10^6 CFU/mL, 3 hours, then overnight colony count): 64 mmol/L | effect on S. aureus (Staphylococcus aureus; compared with E. coli EAEC 042): less pronounced but dose dependent

NPSRQQRR (antibacterial peptide isolated from Lactobacillus GG) [variant of NPSRQERR with net positive charge increased from 2 to 3]
inhibition activity increased relative to NPSRQERR ([1]; net positive charge increased from 2 to 3): 16.5%

PDENK [PDENK]
inhibition rate ([2]; peptide 3.31 mM): 81.4% | E. coli growth inhibition (E. coli EAEC 042): 68.7% | inhibition rate ([3]; peptide 3.31 mM): 68.54%

VHTAPK [VHTAPK]
inhibition rate ([2]; peptide 3.25 mM): 48.53% | E. coli growth inhibition (E. coli EAEC 042): 30% | inhibition rate ([3]; peptide 3.25 mM): 29.45%

— patent publication US8431528B2, “Antibacterial Lactobacillus GG peptides and methods of use” (priority 2008, dated 2013)
